Here are results for 17 compounds from patent publication US20260132140A1, “IMIDAZOLYL-AMINO-PYRAZINE-CARBONITRILS AS CHK-1 INHIBITORS” (BenevolentAI Bio Limited, priority 2022, published 2026).

Experiment [1] addresses T1, human Chk2 kinase (Homo sapiens, UniProt O96017).
Experiment [2] concerns the target T2, human Chk1 kinase (Homo sapiens, UniProt O14757).
T2 sequence (O14757 1-476): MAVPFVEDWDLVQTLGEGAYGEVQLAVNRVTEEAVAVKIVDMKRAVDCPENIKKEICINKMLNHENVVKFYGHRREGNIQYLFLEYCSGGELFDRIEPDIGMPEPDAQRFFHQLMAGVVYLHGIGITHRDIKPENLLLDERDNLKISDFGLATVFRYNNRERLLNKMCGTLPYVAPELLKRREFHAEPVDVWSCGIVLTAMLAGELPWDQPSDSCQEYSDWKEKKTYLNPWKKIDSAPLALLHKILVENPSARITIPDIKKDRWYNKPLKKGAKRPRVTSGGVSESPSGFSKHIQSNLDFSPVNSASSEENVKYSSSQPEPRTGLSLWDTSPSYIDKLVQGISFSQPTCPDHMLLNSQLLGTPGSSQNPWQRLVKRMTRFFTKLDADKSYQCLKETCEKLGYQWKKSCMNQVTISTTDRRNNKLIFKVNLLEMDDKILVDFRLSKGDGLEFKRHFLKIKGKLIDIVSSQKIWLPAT
Briefly: biochemical.

The target of experiment [3] is T3, RSK1 (Homo sapiens, UniProt Q15418).
T3 construct: purchased Eurofins (KinaseProfiler service)
Put plainly: RSK1-4 kinase assay (Eurofins KinaseProfiler, radiometric): RSK1. In kind it is biochemical. The conditions noted are these: approximately ATP Km. The text has this: (§1) The radiometric kinase activity assays were run at approximately the ATP Km for each kinase and the IC50 data is shown in Table 24.

Experiment [4] concerns the target T4, RSK2 (Homo sapiens, UniProt P51812).
T4 construct: purchased Eurofins (KinaseProfiler service)
Briefly: RSK1-4 kinase assay (Eurofins KinaseProfiler, radiometric): RSK2. The conditions noted are these: approximately ATP Km. It counts as biochemical.
Description: as §1

Experiment [5] concerns the target T5, RSK3 (Homo sapiens, UniProt Q15349).
T5 construct: purchased Eurofins (KinaseProfiler service)
Briefly: RSK1-4 kinase assay (Eurofins KinaseProfiler, radiometric): RSK3. The conditions noted are these: approximately ATP Km. In kind it is biochemical.
Description: as §1

For experiment [6], the target named is T6, RSK4 (Homo sapiens, UniProt Q9UK32).
T6 construct: purchased Eurofins (KinaseProfiler service)
Briefly: RSK1-4 kinase assay (Eurofins KinaseProfiler, radiometric): RSK4. In kind it is biochemical. The conditions noted are these: approximately ATP Km.
Description: as §1

Experiment [7] deals with T1, human Chk2 kinase. Put plainly: biochemical.
Experiment [8] addresses T2, human Chk1 kinase. Put plainly: Human Chk1 HTRF (Homogeneous Time Resolved Fluorescence) enzyme assay. The conditions noted are these: 1 nM Chk-1, 30 μM ATP. A general note: Time-resolved FRET reads energy transfer from a long-lived donor to a nearby acceptor.
Experiment [9] deals with GBM LN18 cells. Put plainly: In vitro cell viability assay (Cell Titre Glo, 72 hours). The conditions noted are these: Homo sapiens, LN-18, read-out: LN18 pIC50 (converted). It counts as cell-based. The protocol: GBM LN18 cells were incubated with increasing concentrations of selected compounds of the invention for 72 hours prior to the measurement of ATP in metabolically viable cells with the Cell Titre® Glo Luminescent reagent. A 10-point concentration response curve up to a maximum concentration of 10 μM was tested.
The percent (%) effect i.e., inhibition at each concentration of compound was calculated based on, and relative to the amount of inhibition produced in the vehicle control and inhibited control wells contained within each plate.

The subject of experiment [10] is pChk1(Ser296) in SW620 cells. Briefly: pChk1(Ser296) sandwich ELISA, cell-based on-target kinase activity. The conditions noted are these: Homo sapiens, read-out: SW620 pIC50 (converted). The protocol: ELISA assays were performed as per the manufacturer's protocol. […] Selected compounds of the invention were tested as a 8-point concentration response up to a maximum concentration of either 1 μM, 3 μM or 10 μM. The percent (%) effect i.e. inhibition at each concentration of compound was calculated based on, and relative to, the amount of inhibition produced in the vehicle control and inhibited control wells contained within each plate.
On the technique in general: ELISA stands for enzyme-linked immunosorbent assay.

Experiment [11] deals with 373 human wild-type kinases. Briefly: Kinome selectivity, Eurofins KinaseProfiler kinase screen. It counts as biochemical. The conditions noted are these: panel of 373 human wild-type kinases, approximately ATP Km, top concentration 10 μM. An excerpt: The radiometric kinase activity assays were run at approximately the ATP Km for each kinase.
The mark [12] stands for this setting: SW-620, neocarzinostatin 7.5 μM, 2 hours.

Like-named read-outs stand apart in the source and are kept apart here. A value given as a limit tells only on which side of the number the result lay.

T4 sequence (P51812 whole entry): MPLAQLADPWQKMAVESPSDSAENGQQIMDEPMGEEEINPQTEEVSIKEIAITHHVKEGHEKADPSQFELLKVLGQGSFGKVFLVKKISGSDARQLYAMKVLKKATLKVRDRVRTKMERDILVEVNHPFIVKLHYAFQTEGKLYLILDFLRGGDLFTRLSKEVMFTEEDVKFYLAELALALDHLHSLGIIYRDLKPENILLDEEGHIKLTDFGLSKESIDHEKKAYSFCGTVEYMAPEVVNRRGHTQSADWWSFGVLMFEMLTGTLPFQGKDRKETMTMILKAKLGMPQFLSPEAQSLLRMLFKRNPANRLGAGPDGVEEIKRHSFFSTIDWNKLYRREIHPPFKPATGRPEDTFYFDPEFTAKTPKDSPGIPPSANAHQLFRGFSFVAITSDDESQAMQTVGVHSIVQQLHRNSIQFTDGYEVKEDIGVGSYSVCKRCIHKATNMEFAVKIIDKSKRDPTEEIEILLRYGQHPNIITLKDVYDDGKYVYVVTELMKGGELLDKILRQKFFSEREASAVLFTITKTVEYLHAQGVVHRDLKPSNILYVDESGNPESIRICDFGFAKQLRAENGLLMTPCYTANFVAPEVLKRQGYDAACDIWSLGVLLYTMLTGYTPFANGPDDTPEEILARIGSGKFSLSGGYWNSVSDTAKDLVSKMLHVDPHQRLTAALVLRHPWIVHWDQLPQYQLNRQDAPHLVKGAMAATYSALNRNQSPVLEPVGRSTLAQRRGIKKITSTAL
T5 sequence (Q15349 whole entry): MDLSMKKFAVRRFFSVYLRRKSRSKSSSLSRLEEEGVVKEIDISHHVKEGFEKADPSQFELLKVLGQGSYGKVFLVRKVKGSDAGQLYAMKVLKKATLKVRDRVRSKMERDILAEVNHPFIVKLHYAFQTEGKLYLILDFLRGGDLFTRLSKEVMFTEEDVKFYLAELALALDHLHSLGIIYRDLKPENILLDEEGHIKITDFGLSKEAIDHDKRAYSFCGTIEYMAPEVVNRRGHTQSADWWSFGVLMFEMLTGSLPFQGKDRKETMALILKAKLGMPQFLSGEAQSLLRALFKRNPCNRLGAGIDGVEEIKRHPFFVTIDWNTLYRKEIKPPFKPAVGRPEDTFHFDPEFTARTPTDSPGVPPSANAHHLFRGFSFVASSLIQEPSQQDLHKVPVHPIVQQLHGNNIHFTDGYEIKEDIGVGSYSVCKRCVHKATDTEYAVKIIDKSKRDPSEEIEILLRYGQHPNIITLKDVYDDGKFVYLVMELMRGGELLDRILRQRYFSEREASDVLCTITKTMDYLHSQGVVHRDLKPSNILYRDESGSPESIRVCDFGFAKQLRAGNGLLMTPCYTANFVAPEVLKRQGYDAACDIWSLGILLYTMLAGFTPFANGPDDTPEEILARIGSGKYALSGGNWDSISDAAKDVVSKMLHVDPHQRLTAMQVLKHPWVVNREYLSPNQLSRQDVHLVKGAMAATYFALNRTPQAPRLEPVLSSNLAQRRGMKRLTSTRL
T3 sequence (Q15418 whole entry): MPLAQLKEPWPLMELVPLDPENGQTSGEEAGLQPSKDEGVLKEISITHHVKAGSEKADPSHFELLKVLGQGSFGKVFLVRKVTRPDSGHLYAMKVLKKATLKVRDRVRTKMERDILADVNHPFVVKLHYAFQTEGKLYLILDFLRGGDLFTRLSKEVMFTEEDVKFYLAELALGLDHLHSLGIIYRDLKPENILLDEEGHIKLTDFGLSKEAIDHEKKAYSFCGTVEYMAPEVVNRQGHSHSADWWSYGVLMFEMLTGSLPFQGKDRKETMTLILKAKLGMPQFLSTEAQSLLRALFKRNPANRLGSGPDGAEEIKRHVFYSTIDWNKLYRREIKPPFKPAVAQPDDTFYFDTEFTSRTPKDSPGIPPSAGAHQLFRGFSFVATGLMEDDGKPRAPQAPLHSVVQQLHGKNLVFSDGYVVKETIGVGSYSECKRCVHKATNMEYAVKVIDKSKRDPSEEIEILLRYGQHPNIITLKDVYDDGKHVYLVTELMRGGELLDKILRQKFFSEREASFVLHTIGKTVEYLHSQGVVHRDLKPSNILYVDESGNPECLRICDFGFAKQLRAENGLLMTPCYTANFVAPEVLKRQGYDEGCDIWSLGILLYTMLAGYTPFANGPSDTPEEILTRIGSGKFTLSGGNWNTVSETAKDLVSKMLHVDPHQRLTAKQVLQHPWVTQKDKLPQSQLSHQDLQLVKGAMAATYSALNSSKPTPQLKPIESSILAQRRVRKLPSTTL
T1 sequence (O96017 whole entry): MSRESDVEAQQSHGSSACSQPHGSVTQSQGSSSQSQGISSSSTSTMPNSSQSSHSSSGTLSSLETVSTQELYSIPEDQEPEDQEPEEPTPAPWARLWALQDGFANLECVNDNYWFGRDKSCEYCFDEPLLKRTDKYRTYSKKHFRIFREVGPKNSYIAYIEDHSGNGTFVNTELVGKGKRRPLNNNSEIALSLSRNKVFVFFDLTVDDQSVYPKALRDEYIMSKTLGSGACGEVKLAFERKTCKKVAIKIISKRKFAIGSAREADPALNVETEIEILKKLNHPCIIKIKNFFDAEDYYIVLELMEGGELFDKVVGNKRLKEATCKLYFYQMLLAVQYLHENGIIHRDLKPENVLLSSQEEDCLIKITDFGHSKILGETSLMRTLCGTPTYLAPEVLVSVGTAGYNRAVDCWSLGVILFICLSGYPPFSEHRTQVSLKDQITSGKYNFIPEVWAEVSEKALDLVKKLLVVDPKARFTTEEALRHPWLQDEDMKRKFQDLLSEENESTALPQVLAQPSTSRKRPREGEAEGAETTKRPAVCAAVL
T6 sequence (Q9UK32 whole entry): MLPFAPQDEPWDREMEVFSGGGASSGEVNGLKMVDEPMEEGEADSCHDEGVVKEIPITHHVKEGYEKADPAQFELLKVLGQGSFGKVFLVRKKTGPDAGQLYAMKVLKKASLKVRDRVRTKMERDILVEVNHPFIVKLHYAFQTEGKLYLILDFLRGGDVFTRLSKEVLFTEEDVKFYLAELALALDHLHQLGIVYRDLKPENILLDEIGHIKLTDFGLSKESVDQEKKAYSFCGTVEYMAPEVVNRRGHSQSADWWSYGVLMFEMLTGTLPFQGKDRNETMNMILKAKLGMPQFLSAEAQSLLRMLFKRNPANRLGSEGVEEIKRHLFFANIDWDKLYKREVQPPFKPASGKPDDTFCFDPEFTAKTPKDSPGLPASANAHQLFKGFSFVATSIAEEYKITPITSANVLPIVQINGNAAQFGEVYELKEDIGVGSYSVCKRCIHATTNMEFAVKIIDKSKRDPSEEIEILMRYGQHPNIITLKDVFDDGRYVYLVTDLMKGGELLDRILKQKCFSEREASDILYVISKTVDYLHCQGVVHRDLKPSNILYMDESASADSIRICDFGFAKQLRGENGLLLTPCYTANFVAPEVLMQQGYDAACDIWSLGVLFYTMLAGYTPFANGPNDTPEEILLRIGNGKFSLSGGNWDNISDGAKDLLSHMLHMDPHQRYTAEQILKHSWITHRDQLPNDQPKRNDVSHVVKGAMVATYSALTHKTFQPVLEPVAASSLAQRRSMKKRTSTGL

For the compound `CN(C)CC1CN(c2cccc(-n3cnc(Nc4cnc(C#N)cn4)c3)c2)CCO1` (single isomer, unassigned) [Example 108, 5-((1-(3-(2-((Dimethylamino)methyl)morpholino)phenyl)-1H-imidazol-4-yl)amino)pyrazine-2-carbonitrile], the IC50 fell in the range of 10 to 100 µM in experiment [1] and 0.01 to 0.0316 µM in experiment [2].
The compound `CN1CCOC(c2ccc(-n3cnc(Nc4cnc(C#N)cn4)c3)cc2)C1` (single isomer, unassigned) [Example 106, 5-((1-(4-(4-Methylmorpholin-2-yl)phenyl)-1H-imidazol-4-yl)amino)pyrazine-2-carbonitrile] showed an IC50 in [1] of 10 to 100 µM.
In experiment [1], `N#Cc1cnc(Nc2cn(-c3ccc(N4CCC(N5CC6(CCC6)C5)C4)cc3)cn2)cn1` (single isomer, unassigned) [Example 132, 5-((1-(4-(3-(2-Azaspiro[3.3]heptan-2-yl)pyrrolidin-1-yl)phenyl)-1H-imidazol-4-yl)amino)pyrazine-2-carbonitrile] came in with an IC50 of 1 to 10 µM.
Take `CN1CCC12CN(c1ccc(-n3cnc(Nc4cnc(C#N)cn4)c3)cc1)C2` [Example 61, 5-((1-(4-(1-Methyl-1,6-diazaspiro[3.3]heptan-6-yl)phenyl)-1H-imidazol-4-yl)amino)pyrazine-2-carbonitrile]: the IC50 in experiment [3] is 6.78 µM; in experiment [4], 2.67 µM; in experiment [5], 1.92 µM; in experiment [6], 4.07 µM; in experiment [2] it was 0.01 to 0.0316 µM; in experiment [7], 10 to 100 µM.
For `COc1cccc(OCCCN)c1-c1cc(Nc2cnc(C#N)cn2)n[nH]1` [Comparator Ex. 1, 5-((5-(2-(3-Aminopropoxy)-6-methoxyphenyl)-1H-pyrazol-3-yl)amino)pyrazine-2-carbonitrile, reference compound], the IC50 in [3] is 0.02 µM; in experiment [4], 0.002 µM; in experiment [5], 0.004 µM; in [6], 0.005 µM.
In the case of `CCNCc1ccc(-c2cc(Nc3cnc(C#N)cn3)n[nH]2)c(OC)c1` [Comparator Ex. 3, 5-((5-(4-((Ethylamino)methyl)-2-methoxyphenyl)-1H-pyrazol-3-yl)amino)pyrazine-2-carbonitrile, reference compound], the IC50 worked out at 0.57 µM in [3], 0.172 µM in [4], 0.06 µM in experiment [5] and 0.163 µM in experiment [6].
In turn, `CC1(C)CN(C2CCN(c3ccc(-n4cnc(Nc5cnc(C#N)cn5)c4)cc3)C2)C1` (single isomer, unassigned) [Example 124, 5-((1-(4-(3-(3,3-Dimethylazetidin-1-yl)pyrrolidin-1-yl)phenyl)-1H-imidazol-4-yl)amino)pyrazine-2-carbonitrile] returned an IC50 in [7] of 1 to 10 µM. The “Chk1 pIC50” value in [8] is “D (D: 7.5-8.0)”.
Take `N#Cc1cnc(Nc2cn(-c3ccccc3OCCCN)cn2)cn1` [Example 168, 5-((1-(2-(3-Aminopropoxy)phenyl)-1H-imidazol-4-yl)amino)pyrazine-2-carbonitrile]: the IC50 in experiment [9] is 1 to 10 µM; in experiment [10] (setting [12]) it was 1 to 10 µM; in experiment [3], over 10 µM; in experiment [4], 7.07 µM; in [5] it was 5.83 µM; in experiment [6], over 10 µM.
Regarding `CN(C)[C@@H]1CCN(c2ccc(-n3cnc(Nc4cnc(C#N)cn4)c3)cc2)C1` [Example 12, (R)-5-((1-(4-(3-(Dimethylamino)pyrrolidin-1-yl)phenyl)-1H-imidazol-4-yl)amino)pyrazine-2-carbonitrile], the IC50 was under 1 µM in experiment [9]; under 1 µM in [10] (setting [12]); over 10 µM in experiment [3]; 6.62 µM in experiment [4]; 4.34 µM in experiment [5]; 9.2 µM in experiment [6]. Also, the IC50 in experiment [2] is under 0.01 µM.
Turning to `COc1cc(N2CCN(C)CC2)ccc1-c1cc(Nc2cnc(C#N)cn2)n[nH]1` [Comparator Ex. 2, 5-((5-(2-Methoxy-4-(4-methylpiperazin-1-yl)phenyl)-1H-pyrazol-3-yl)amino)pyrazine-2-carbonitrile, reference compound], the IC50 in [3] worked out at 0.259 µM; in [4], 0.08 µM; in [5], 0.024 µM; in [6] it was 0.077 µM.
Turning to `CN1CCC12CCN(c1ccc(-n3cnc(Nc4cnc(C#N)cn4)c3)cc1)C2` (single isomer, unassigned) [Example 128, 5-((1-(4-(1-Methyl-1,6-diazaspiro[3.4]octan-6-yl)phenyl)-1H-imidazol-4-yl)amino)pyrazine-2-carbonitrile], the IC50 in [1] was over 100 µM.
The compound `CC1CN(C2CCN(c3ccc(-n4cnc(Nc5cnc(C#N)cn5)c4)cc3)C2)C1` (single isomer, unassigned) [Example 126, 5-((1-(4-(3-(3-Methylazetidin-1-yl)pyrrolidin-1-yl)phenyl)-1H-imidazol-4-yl)amino)pyrazine-2-carbonitrile] displayed an IC50 in [7] of over 100 µM. The “Chk1 pIC50” value in experiment [8] is given as “D (D: 7.5-8.0)”.
For `CN(CCO)C1CCN(c2cccc(-n3cnc(Nc4cnc(C#N)cn4)c3)c2)C1` (single isomer, unassigned) [Example 110, 5-((1-(3-(3-((2-Hydroxyethyl)(methyl)amino)pyrrolidin-1-yl)phenyl)-1H-imidazol-4-yl)amino)pyrazine-2-carbonitrile], in that order: 10 to 100 µM and “D (D: 7.5-8.0)”.
`CN(C)C1CCCN(c2cccc(-n3cnc(Nc4cnc(C#N)cn4)c3)c2)C1` (single isomer, unassigned) [Example 112, 5-((1-(3-(3-(Dimethylamino)piperidin-1-yl)phenyl)-1H-imidazol-4-yl)amino)pyrazine-2-carbonitrile] gave an IC50 in [1] of 10 to 100 µM.
As for `CN[C@@H]1CCN(c2ccc(-n3cnc(Nc4cnc(C#N)cn4)c3)cc2)C1` [Example 155, (R)-5-((1-(4-(3-(Methylamino)pyrrolidin-1-yl)phenyl)-1H-imidazol-4-yl)amino)pyrazine-2-carbonitrile], the IC50 in experiment [9] was under 1 µM; in experiment [10] (SW-620, 2 h, neocarzinostatin 7.5 μM), under 1 µM; in [3], 3.42 µM; in [4], 1.12 µM; in experiment [5] it was 0.822 µM; in experiment [6] it was 1.96 µM. In addition, the IC50 is under 0.01 µM in experiment [2] and 1 to 10 µM in experiment [7]. Further, the “Number of 372 kinases inhibited relative to Chk1 IC50 Within 10-fold” value in experiment [11] was found to be 1. In addition, in experiment [11], the “Number of 372 kinases inhibited relative to Chk1 IC50 Within 100-fold” value is given as 6.
`N#Cc1cnc(Nc2cn(-c3cccc(N4CCC(N)C(F)(F)C4)c3)cn2)cn1` (single isomer, unassigned) [Example 167, 5-((1-(3-(4-Amino-3,3-difluoropiperidin-1-yl)phenyl)-1H-imidazol-4-yl)amino)pyrazine-2-carbonitrile]: in experiment [1], the IC50 is over 100 µM.
Still for that read-out and setting: in the case of `N#Cc1cnc(Nc2cn(-c3ccc(N4CCN5CCCC5C4)cc3)cn2)cn1` (single isomer, unassigned) [Example 118, 5-((1-(4-(Hexahydropyrrolo[1,2-a]pyrazin-2(1H)-yl)phenyl)-1H-imidazol-4-yl)amino)pyrazine-2-carbonitrile] it was over 100 µM.
